Our source for the Ratio, Relative Vmax and Km values is ChEMBL document CHEMBL1150480, “Photoreactive CMP-sialic acids as substrates for 2,6-sialyltransferase” (Bioorg Med Chem Lett, 1995).

Data set [1] can be described thus: Evaluation of ratio of Michaelis-Menten constant to that of kinetic constant against 2,6-sialyltransferase in presence of compound.
For data set [2], the target named is T1, Beta-galactoside alpha-2,6-sialyltransferase 1 (Rattus norvegicus) (UniProt P13721).
T1 sequence (whole entry): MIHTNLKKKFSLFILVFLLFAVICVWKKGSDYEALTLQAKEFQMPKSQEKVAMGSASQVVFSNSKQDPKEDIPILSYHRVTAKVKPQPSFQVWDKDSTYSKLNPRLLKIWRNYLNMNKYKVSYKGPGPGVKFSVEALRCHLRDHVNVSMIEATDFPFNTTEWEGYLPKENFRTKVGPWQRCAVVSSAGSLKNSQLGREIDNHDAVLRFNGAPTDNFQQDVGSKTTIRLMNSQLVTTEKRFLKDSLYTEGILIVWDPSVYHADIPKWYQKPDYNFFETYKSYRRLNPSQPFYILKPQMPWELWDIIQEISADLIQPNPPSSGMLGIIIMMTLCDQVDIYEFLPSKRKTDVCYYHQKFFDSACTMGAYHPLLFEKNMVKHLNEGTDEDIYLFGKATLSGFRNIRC
Kind of data set: Evaluation of kinetic constant for rat liver GaI-beta-1,4GIcNAc alpha2,6-sialyltransferase in presence of compound.

Compound in data set [3]: [N-]=[N+]=Nc1ccc(C(=O)NCC(=O)NC2C(O)CC(OP(=O)(O)OC[C@H]3OC(n4ccc(N)nc4=O)[C@H](O)[C@@H]3O)(C(=O)O)OC2[C@H](O)[C@H](O)CO)cc1
Kind of data set: (§1) Evaluation of Michaelis-Menten constant of rat liver GaI-beta-1,4GIcNAc alpha2,6-sialyltransferase in presence of compound.

Compound in data set [4]: NCC(=O)NC1C(O)CC(OP(=O)(O)OC[C@H]2OC(n3ccc(N)nc3=O)[C@H](O)[C@@H]2O)(C(=O)O)OC1[C@H](O)C(O)CO
The description is as §1.

Compound in data set [5]: CC(=O)NC1C(O)CC(OP(=O)(O)OC[C@H]2OC(n3ccc(N)nc3=O)[C@H](O)[C@@H]2O)(C(=O)O)OC1[C@H](O)[C@H](O)CNC(=O)c1ccc(C(=O)c2ccccc2)cc1
Described as §1.

Compound in data set [6]: CC(=O)NC1C(O)CC(OP(=O)(O)OC[C@H]2OC(n3ccc(N)nc3=O)[C@H](O)[C@@H]2O)(C(=O)O)OC1[C@H](O)[C@H](O)CNC(=O)c1ccc(N=[N+]=[N-])cc1
Described as §1.

Compound in data set [7]: CC(=O)NC1C(O)CC(OP(=O)(O)OC[C@H]2OC(n3ccc(N)nc3=O)[C@H](O)[C@@H]2O)(C(=O)O)OC1[C@H](O)[C@H](O)CNC(=O)c1ccc(N=[N+]=[N-])cc1O
The description is as §1.

For the molecule `CC(=O)NC1C(O)CC(OP(=O)(O)OC[C@H]2OC(n3ccc(N)nc3=O)[C@H](O)[C@@H]2O)(C(=O)O)OC1[C@H](O)[C@H](O)CNC(=O)c1ccc(N=[N+]=[N-])cc1O` (stereo not given in full), the Ratio in data set [1] came out at 13.8. Further, the Relative Vmax in data set [2] was 1.1.

`CC(=O)NC1C(O)CC(OP(=O)(O)OC[C@H]2OC(n3ccc(N)nc3=O)[C@H](O)[C@@H]2O)(C(=O)O)OC1[C@H](O)[C@H](O)CNC(=O)c1ccc(N=[N+]=[N-])cc1` (stereo not given in full): in data set [1], the Ratio worked out at 13.6. In addition, the Relative Vmax in data set [2] stood at 0.9.

For the molecule `NCC(=O)NC1C(O)CC(OP(=O)(O)OC[C@H]2OC(n3ccc(N)nc3=O)[C@H](O)[C@@H]2O)(C(=O)O)OC1[C@H](O)C(O)CO` (stereo not given in full), in data set [1], the Ratio came to 22.2. The Relative Vmax in data set [2] amounted to 1.

As for `[N-]=[N+]=Nc1ccc(C(=O)NCC(=O)NC2C(O)CC(OP(=O)(O)OC[C@H]3OC(n4ccc(N)nc4=O)[C@H](O)[C@@H]3O)(C(=O)O)OC2[C@H](O)[C@H](O)CO)cc1` (stereo not given in full), in data set [1], the Ratio was 3.1. The Relative Vmax in data set [2] was 0.5.

`CC(=O)NC1C(O)CC(OP(=O)(O)OC[C@H]2OC(n3ccc(N)nc3=O)[C@H](O)[C@@H]2O)(C(=O)O)OC1[C@H](O)[C@H](O)CNC(=O)c1ccc(C(=O)c2ccccc2)cc1` (stereo not given in full): in data set [1], the Ratio was 11.8. Further, the Relative Vmax in data set [2] was determined as 0.8.

B1: Beta-galactoside alpha-2,6-sialyltransferase 1 (Rattus norvegicus), P13721 (protein)
chain: T1 sequence (whole entry)
The term Km denotes the substrate concentration at which the rate is half of its maximum. In the case of B1, the Km in data set [3] was found to be 161 µM; in data set [4] it was 45 µM; in data set [5], 68 µM; in data set [6], 66 µM; in data set [7], 80 µM.
